From patent publication US20100298394A1, “ANTIFUNGAL AGENTS AS NEUROPROTECTANTS” (THE JOHNS HOPKINS UNIVERSITY, priority 2007, published 2010)

Tests used:
[1] = test system: Human cortical neuronal cultures; experiment: 6-OHDA toxicity assay in human neurons, MTT endpoint; format: cell-based; details: increasing concentrations, 1 h prior to 100 μM 6-OHDA for 18 h
Experimental: (§1) Human cortical neuronal cultures were treated with increasing concentrations of fluconazole for 1 h prior to exposure to 3 mM 3-NP (panel A) or 100 μM 6-OHDA (panel B) for 18 h. Cell survival was measured by MTT assay. Statistical significance was determined by ANOVA with Newman-Keuls pairwise post hoc comparisons. Statistical significance * indicates p<0.05, ** indicates p<0.01; *** indicates p<0.001.
(§2) FIG. 9 illustrates the protection of human neuronal cultures from 3-NP and 6-OHDA with fluconazole (FIGS. 9A-9B, respectively). The neural and glial cells were preincubated with the neuroprotective compound for 1 hour followed by exposure to 3 mM 3-NP or 100 μM 6-OHDA for 18 hours.

[2] = test system: Mixed hippocampal cultures; experiment: ADP ribose toxicity assay, MTT endpoint; format: cell-based, rat; details: increasing concentrations, 24 h prior to 1 mM ADP ribose for 18 h
Experimental: (§3) Mixed hippocampal cultures were treated with increasing concentrations of fluconazole (panel A) or voriconazole (panel B), for 24 h prior to exposure to 1 mM ADP ribose for 18 h. Cell survival was measured following ADP ribose by MTT assay. Statistical significance was determined by ANOVA with Newman-Keuls pairwise post hoc comparisons. Statistical significance * indicates p<0.05, ** indicates p<0.01; *** indicates p<0.001.
(§4) Rat mixed hippocamal neuronal cultures are generated from freshly dissected rat hippocampi (embryonic day 18) in neurobasal media containing 5% fetal bovine serum and 2% B27 supplement. The cells are plated into 96 well plates at a density of 4×10^5 cells/mL and routinely used on days 11-14 following culturing. Cell viability is assessed with MTT [3-(4,5-dimethylthiazol-2-yl)-2,5-diphenyltetrazolium bromide] assay. The MTT assay is based on the ability of a mitochondrial dehydrogenase enzyme from viable cells to cleave the tetrazolium rings of the pale yellow MTT and form dark blue formazan crystals. See Mosmann (1983), J Immunol Methods, 65(1-2):55-63. These crystals are largely impermeable to cell membranes, and thus accumulate within healthy cells. The resultant formazan precipitates are solubilized with DMSO and read on a multiwell scanning spectrophotometer (ELISA reader). […]

[3] = test system: Mixed hippocampal cultures; experiment: 6-OHDA neurotoxicity assay, MTT endpoint; format: cell-based, rat; details: increasing concentrations, 1 h prior to 100 μM 6-OHDA for 18 h
Experimental: as §3, with “1” for “24”, “100 μM 6-hydroxydopamine (6-OHDA)” for “1 mM ADP ribose”, “6-OHDA” for “ADP ribose”, “p<0.00” for “p<0.001.”
as §4

[4] = test system: rat mixed hippocampal cultures; experiment: 3-NP neurotoxicity (neuroprotection) assay, MTT endpoint; format: cell-based; details: for % Protection vs. 3-NP / Protection vs 3NP: 10 μM agent, 60 minutes incubation, 3 mM 3-NP, compared to 0.1% DMSO vehicle control; for protection from oxidative damage elicited by 3-NP (FIG. 4): increasing concentrations, 1 h prior to 3 mM 3-NP for 18 h; for protection from oxidative damage elicited by 3-NP (positive controls, FIG. 2): 10 μM, 1 hour pretreatment, 3 mM 3-NP for 18 hours
Experimental: For example, a cell viability assay can be utilized to detect and/or measure the ability of a compound disclosed herein to protect neuronal and/or glial cells. In some embodiments, mixed hippocampal cell cultures are prepared as described in, e.g., Haughey et al. (1999), J Neurochem, 73(4):1363-1374, and Haughey et al (2004), J Neurosci, 24(1):257-268. Subsequently, the cultures are pretreated for one hour in the presence of a candidate neuroprotective agent and then incubated with a cytotoxic agent for about 18 hours. Examples of cytotoxic agents include, but are not limited to, oxidative stressors (e.g., 3-nitropropionic acid (3-NP) or H2O2),.excitatory amino acids (e.g., kainate), or neurotoxic proteins (e.g., Hiv Tat, or Aβ peptides). […] The level of protection (“percent protection”) provided by the test compound at a given test concentration in vitro can be expressed as: […]
(§5) We evaluate the protective efficacy of a number of antifungal agents against many different neurotoxins, ranging from the chemotoxic 6-OHDA, NMDA, 3-nitropropionic acid (3-NP), and viral proteins such as Tat and gp120. Thus, we provide an in vitro neuroprotection assay using rat mixed hippocampal cultures, in which we evaluate the protective efficacy of neuroprotective compounds described herein. The oxidative stressor 3-NP is used to elicit toxicity in the rat hippocampal cultures to mimic the oxidative damage, reactive oxygen species production and ensuing neurodegeneration resulting from HIV infection. Another measure of neurotoxicity which results from HIV infection is evaluated by exposure of the hippocampal cultures to HIV-1 Tat (Li et al (2005), Neurotox Res, 8(1-2):119-134).
(§6) Rat mixed hippocamal neuronal cultures are generated from freshly dissected rat hippocampi (embryonic day 18) in neurobasal media containing 5% fetal bovine serum and 2% B27 supplement. The cells are plated into 96 well plates at a density of 4×10^5 cells/mL and routinely used on days 11-14 following culturing. Cell viability is assessed with MTT [3-(4,5-dimethylthiazol-2-yl)-2,5-diphenyltetrazolium bromide] assay. The MTT assay is based on the ability of a mitochondrial dehydrogenase enzyme from viable cells to cleave the tetrazolium rings of the pale yellow MTT and form dark blue formazan crystals. See Mosmann (1983), J Immunol Methods, 65(1-2):55-63. These crystals are largely impermeable to cell membranes, and thus accumulate within healthy cells. The resultant formazan precipitates are solubilized with DMSO and read on a multiwell scanning spectrophotometer (ELISA reader). The number of surviving cells is directly proportional to the level of the formazan product created.
(§7) Mixed hippocampal cultures are incubated with 3-NP (0.5-10 mM) for 18 hours in a 0.1% DMSO vehicle and then assessed for viability using an MTT assay.
Neuroprotection vs 3NP is measured as a percentage of neural and/or glial cell that are protected from 3NP induced cell death after incubation with the neuroprotective agent (10 μM) for 60 minutes when compared to a 0.1% DMSO vehicle control.
The neural and glial cells were preincubated with the neuroprotective compound for 1 hour followed by exposure to3 mM of the toxin for 18 hours.

[5] = test system: rat mixed hippocampal cultures; experiment: HIV-1 Tat neurotoxicity assay, MTT endpoint; format: cell-based; details: for protection of hippocampal cultures from HIV-Tat toxicity (FIG. 5): increasing concentrations, 1 hour preincubation, 500 nM Tat1-72 for 18 hours; for protection from HIV-1 Tat toxicity (positive controls, FIG. 3): 10 μM, 1 hour pretreatment, 500 nM Tat for 18 hours
Source text: as §5, §6
The assay system is validated using two neuroprotective agents, GPI 1046 and Resveratrol. […] Cultures are preincubated with GPI 1046 or Resveratrol for one hour prior to an 18 hour exposure to 3 mM 3-NP. […] The same neuroprotective compounds are evaluated for efficacy against HIV-1 Tat protein toxicity using the same 1 hour preincubation protocol.
The neural and glial cells were preincubated with the neuroprotective compound for 1 hour followed by exposure to 500 nM of Tat1-72 for 18 hours.

[6] = test system: Mixed hippocampal cultures; experiment: NMDA excitotoxicity assay, MTT endpoint; format: cell-based, rat; details: increasing concentrations, 1 h prior to 500 μM NMDA for 18 h
Experimental: as §3, with “1” for “24”, “500 μM N-methyl D-aspartate (NMDA)” for “1 mM ADP ribose”, “NMDA” for “ADP ribose”
as §4

[7] = test system: Human cortical neuronal cultures; experiment: 3-NP toxicity assay in human neurons, MTT endpoint; format: cell-based; details: increasing concentrations, 1 h prior to 3 mM 3-NP for 18 h
Experimental: as §1, §2

[8] = test system: rat mixed hippocampal cultures; experiment: Titration of 3-NP toxicity, MTT endpoint; format: cell-based; details: 3 mM 3-NP, 18 hours, compared to 0.1% DMSO vehicle control
Experimental: FIG. 1 presents an illustrative titration of 3-NP toxicity in rat mixed hippocampal cultures. Rat mixed hippocampal cultures, day 11-14 in vitro, were subjected to 18 hour exposure to 3-NP, followed by MTT treatment to quantitate cell viability.
as §6, §7

SMILES	% Protection vs. 3-NP [4] [%]	Protection vs 3NP [4] [%]	protection from oxidative damage elicited by 3-NP (FIG. 4) [4]	protection of hippocampal cultures from HIV-Tat toxicity (FIG. 5) [5]	also measured
OC(Cn1cncn1)(Cn1cncn1)c1ccc(F)cc1F [FLUCONAZOLE, Fluconazole]	13.3	13.35	protect hippocampal neurons from oxidative damage elicited by 3-NP	concentration dependent protection	protection of human cortical neurons from 6-OHDA toxicity (FIG. 9B) [1]: protects human cortical neurons; protection from toxicity elicited by ADP ribose (FIG. 8) [2]: protect hippocampal neurons from toxicity elicited by ADP ribose; protection from 6-OHDA neurotoxicity (FIG. 7) [3]: protect hippocampal neurons from 6-OHDA neurotoxicity; protection from excitotoxic lesions elicited by NMDA (FIG. 6) [6]: protect hippocampal neurons from excitotoxic lesions elicited by NMDA; protection of human cortical neurons from 3-NP toxicity (FIG. 9A) [7]: protects human cortical neurons
Clc1ccc(COC(Cn2ccnc2)c2ccc(Cl)cc2Cl)cc1 (stereo not shown) [ECONAZOLE NITRATE, Econazole Nitrate]	141.2	141.18			
Clc1ccc(COC(Cn2ccnc2)c2ccc(Cl)cc2Cl)c(Cl)c1 (stereo not shown) [miconazole]			protect hippocampal neurons from oxidative damage elicited by 3-NP	concentration dependent protection	
Cc1cccc(N(C)C(=S)Oc2ccc3ccccc3c2)c1 [TOLNAFTATE, Tolnaftate]	66.8	66.83	protect hippocampal neurons from oxidative damage elicited by 3-NP	concentration dependent protection	
Clc1ccc(COC(Cn2ccnc2)c2ccc(Cl)cc2Cl)cc1 (stereo not shown) [econazole]			protect hippocampal neurons from oxidative damage elicited by 3-NP	concentration dependent protection	
CC(=O)N1CCN(c2ccc(OCC3COC(Cn4ccnc4)(c4ccc(Cl)cc4Cl)O3)cc2)CC1 (stereo not shown) [KETOCONAZOLE]		20.93			
CCC(C)(C)C(=O)C(=O)N1CCC[C@H]1C(=O)OCCCc1cccnc1 [GPI 1046]					protection from oxidative damage elicited by 3-NP (positive controls, FIG. 2) [4]: significantly protected rat neurons from oxidative damage; protection from HIV-1 Tat toxicity (positive controls, FIG. 3) [5]: protected hippocampal neurons from Tat toxicity
COc1ccc(/C=C/c2cc(O)cc(O[C@@H]3O[C@H](CO)[C@@H](O)[C@H](O)[C@H]3O)c2)cc1O [RHAPONTIN]		22.12			
Oc1ccc(C=Cc2cc(O)cc(O)c2)cc1 [Resveratrol]					protection from oxidative damage elicited by 3-NP (positive controls, FIG. 2) [4]: significantly protected rat neurons from oxidative damage; protection from HIV-1 Tat toxicity (positive controls, FIG. 3) [5]: protected hippocampal neurons from Tat toxicity
CC(=O)OCC(COC(C)=O)OC(C)=O [TRIACETIN]		45.14			
C[C@@H]1[C@H](O)[C@@H](C)/C=C/C=C/CC/C=C/C=C/C=C/C=C/C(O[C@H]2O[C@H](C)[C@@H](O)[C@H](N)[C@@H]2O)CC2O[C@](O)(CC(O)C(O)CCC(O)CC(O)CC(O)CC(=O)O[C@H]1C)CC(O)C2C(=O)O (stereo partly shown) [NYSTATIN]		46.72			
CCCCCCOc1ccccc1C(N)=O [EXALAMIDE]		9.19			
Clc1ccccc1C(c1ccccc1)(c1ccccc1)n1ccnc1 [CLOTRIMAZOLE, Clotrimazole]	12.6	12.57	protect hippocampal neurons from oxidative damage elicited by 3-NP	concentration dependent protection	
Fc1ccc(C(c2ccccc2)(c2ccccc2F)n2ccnc2)cc1 (stereo not shown) [FLUTRIMAZOLE]		46.85			
O=C(O)CC[N+](=O)[O-] [3-NP, 3-nitropropionic acid]					cytotoxicity [8]: 25-35%
C[C@@H](c1ncncc1F)[C@](O)(Cn1cncn1)c1ccc(F)cc1F [voriconazole]			protect hippocampal neurons from oxidative damage elicited by 3-NP	concentration dependent protection	protection from toxicity elicited by ADP ribose (FIG. 8) [2]: protect hippocampal neurons from toxicity elicited by ADP ribose; protection from 6-OHDA neurotoxicity (FIG. 7) [3]: protect hippocampal neurons from 6-OHDA neurotoxicity; protection from excitotoxic lesions elicited by NMDA (FIG. 6) [6]: protect hippocampal neurons from excitotoxic lesions elicited by NMDA
Clc1ccc(COC(Cn2ccnc2)c2ccc(Cl)cc2Cl)c(Cl)c1 (stereo not shown) [MICONAZOLE NITRATE, Miconazole Nitrate]	81.6	81.61			
Clc1ccc(CSC(Cn2ccnc2)c2ccc(Cl)cc2Cl)cc1 (stereo not shown) [SULCONAZOLE NITRATE, Sulconazole Nitrate]	18.21	18.21			
